# Test results taken from patent publication US7855076B2, “Use of discoidin domain receptor 1 (DDR1) and agents that affect the DDR1/collagen pathway” (The United States of America as represented by the …, priority 2002, dated 2010).
# What was measured:
# Type in all cases: cell-based, human
# THP-1 cells = assay: Cytokine and chemokine release from PMA-treated THP-1 cells by ELISA
# Description: The production of DDR1a- or 1b-overexpressing THP-1 cells was previously described (Kamohara et al., FASEB J. 15:2724, 2001). Briefly, the human monocytic leukemic cell line, THP-1, was transduced with control retrovirus containing the vector only (mock-transduced) or retrovirus expressing DDR1a or DDR1b. THP-1 cells transduced by each virus were selected with G418, and cloned by limiting dilution. The cloned THP-1 cells were maintained in RPMI 1640 medium supplemented with 100 μg/ml gentamycin and 10% FCS (complete medium). Cells were plated at 1×10^6/ml and treated with PMA (10 nM) for variable times on uncoated or collagen-coated tissue culture plates for quantification of cytokine or chemokine release.
# In addition, the concentration of MCP-1 in the culture supernatant of each cell line was measured by ELISA. The concentration of MCP-1 was measured in the Lymphokine Testing Laboratory, Clinical Services Program, SAIC-Frederick (Frederick, Md.) by using an enzyme-linked immunosorbent assay (ELISA) kit (R&D Systems, Minneapolis, Minn.) specific for the chemokine.
# In addition, the concentrations of IL-1β, IL-8, and MIP-1α in the culture supernatants of each cell line were quantified by ELISA (FIG. 6). The concentration of IL-1β, IL-8, and MIP-1α were measured in the Lymphokine Testing Laboratory, Clinical Services Program, SAIC-Frederick (Frederick, Md.) by using enzyme-linked immunosorbent assay (ELISA) kits (R&D Systems, Minneapolis, Minn.) specific for each human cytokine and chemokine. […]
# NF-κB [1] = assay: Nuclear translocation of NF-κB by EMSA; settings: DDR1b-overexpressing cells on collagen-coated plates
# Description: Nuclear translocation of NF-κB was examined by EMSA. Nuclear extracts were prepared by a method previously reported (Ueda et al., J. Biol. Chem. 272:31092, 1997), and aliquots were frozen at −80° C. For EMSA, end-labeled ^32P-oligonucleotide probes corresponding to the NF-KB binding site of the Ig κ-chain (5′-[…]-3′) (SEQ ID NO: 15) or MCP-1 (A2 site; 5′-[…]-3′) (SEQ ID NO: 16) gene were used. Each probe was incubated with 5 μg of nuclear extracts in 20 μl of binding cocktail (50 mM Tris-HCl, pH 7.4, 25 MM MgCl2, 0.5 mM DTT, 50% glycerol) at 4° C. for 15 minutes. The DNA-protein complexes were resolved on a 5% polyacrylanide gel. The dried gels were exposed to X-ray films.
# NF-κB [2] = assay: NF-κB luciferase reporter assay in THP-1 cells; settings: DDR1b-overexpressing cells
# Description: For the results shown in FIG. 7A, mock-transduced or DDR1b-overexpressing THP-1 cells were transfected with 10 μg of the NF-κB-Luc plasmid and 5 μg of pSV-β-galactosidese plasmid DNA (Promega, Madison, Wis.) per 100-mm tissue culture plate using Effectene Transfection Reagent (Qiagen, Valencia, Calif.), according to the manufacture's protocol. After a 12-hour incubation, cells were rinsed with phosphate buffered saline (PBS) and then incubated with 10 nM PMA on collagen-coated plates in the presence of absence of SB203580, PD98059, CAPE or dimethlysulfoxide (DMSO) for another 12 hours. Cells were collected and lysed using the Reporter Lysis Buffer (Promega, Madison, Wis.), and luciferase activity and β-galactosidase activities were measured according to the protocol provided by the manufacturer. The resulting luciferase activity was corrected based on the β-galactosidase activity in the same cell extract. For the results shown in FIG. 7B, DDR1b-overexpressing THP-1 cells were transfected with 10 μg of the pGLM-ENH, or pGLM-MA1MA2 (Ueda et al., J. Bio. Chem. 272: 31092-9, 1997) and 5 μg of pSV-β-galactosidese plasmid DNA (Promega, Madison, Wis.) per 100-mm tissue culture plate using Effectene Transfection Reagent (Qiagen, Valencia, Calif.) according to the manufacture's protocol. […] Cells were collected and lysed using the Reporter Lysis Buffer (Promega, Madison, Wis.), and luciferase activity and β-galactosidase activities were measured according to the protocol provided by the manufacturer. […]
# Mock-transduced or DDR1b-overexpressing THP-1 cells were transfected with 10 μg of the NF-κB-Luc plasmid, pGL-ENH, or pGL-MA1MA2 and 5 μg of pSV-β-galactosidase plasmid DNA (Promega, Madison, Wis.) per 100-mm tissue culture plate using Effectene Transfection Reagent (Qiagen, Valencia, Calif.) according to the manufacture's protocol. […] Luciferase activity and β-galactosidase activities were measured according to the protocol provided by the manufacturer. […]
# [3] = tested on: monocyte-derived dendritic cells; assay: Allogeneic MLR with monocyte-derived DCs
# Description: FIG. 9 is a graph showing the effect of DDR1 antibody on the antigen presenting capacity of DCs.
# The most important function of DCs is to present antigens to naïve T cells. […] Human T cells were purified from PBMCs of healthy donors by magnetic separation using CD3^+microbeads (Miltenyi Biotech Inc., Auburn, Calif.). T cells (1×10^5) were placed in 96-well plates with increasing numbers of DC (5×10^2−1×10^4 cells) in 200 μl culture medium. On day four, 1 μCi/well of [^3H]thymidine was added, and incorporation of radioactivity was measured after 15 hours of incubation. All tests were performed in triplicate.
# [4] = DDR1b-overexpressing THP-1 cells, PMA, collagen-coated plates, 48 hours
compound,measurement,setting,value
C[S+]([O-])c1ccc(-c2nc(-c3ccncc3)c(-c3ccc(F)cc3)[nH]2)cc1 (centres unmarked) [SB203580],collagen-induced up-regulation of IL-1β release,THP-1 cells; [4],inhibited
same,collagen-induced up-regulation of IL-8 release,THP-1 cells; [4],inhibited
same,collagen-induced up-regulation of MCP-1 release,THP-1 cells; [4],inhibited
same,collagen-induced up-regulation of MIP-1α release,THP-1 cells; [4],inhibited
same,increased NF-κB/DNA binding,NF-κB [1],not affected
same,increase in luciferase activity induced by PMA plus collagen,NF-κB [2]; 12 hours,dose-dependently inhibited
same,capacity to activate allogeneic MLR of TNF-α-induced DCs and its up-regulation by DDR1 activation,[3],almost completely abrogated
TNF-α,allogeneic MLR by induced mDCs,[3]; cell number-dependent,markedly activated
collagen,increase of MCP-1 released on collagen-coated plates,THP-1 cells; PMA-treated DDR1b-overexpressing cells,approximately 7 fold
same,amount of NF-κB/DNA complex,NF-κB [1],significantly increased
same,luciferase activity,"NF-κB [2]; PMA plus collagen, NF-κB-Luc plasmid",markedly increased
